These results are taken from patent US20090306133A1, “New Acetyl Coenzyme A Carboxylase (ACC) Inhibitors And Uses In Treatments Of Obesity And Diabetes Mellitus - 087” (ASTRAZENECA AB, priority 2007, published 2009).

The IC50 is the concentration that inhibits the measured activity by half.

Where only a bound is given, the exact number is not on record here.

Assay [1] addresses Human recombinant Acetyl-CoA Carboxylase 2 (ACC2) (Homo sapiens, UniProt O00763). Briefly: Assay X: ACC2 inhibition, inorganic phosphate (malachite green). It is filed as biochemical. Conditions: Assay X: 37° C., 1.5 h, 5 min pre-incubation. An outline of the steps:
(§1)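 Human recombinant enzyme pre-incubated 5 min with compound before substrate addition; reaction run 1.5 h, then inorganic phosphate detected by malachite green absorbance at 660 nm. Ten concentrations tested in triplicate; apparent IC50 from four-parameter curve fit.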

Assay [2] has as its target Human recombinant Acetyl-CoA Carboxylase 1 (ACC1) (Homo sapiens, UniProt Q13085). Briefly: Assay X: ACC1 inhibition, inorganic phosphate (malachite green). It is filed as biochemical. The following applies: Assay X: 37° C., 1.5 h, 5 min pre-incubation. The essentials:
as §1

Human recombinant Acetyl-CoA Carboxylase 2 (ACC2), sequence (O00763 whole entry): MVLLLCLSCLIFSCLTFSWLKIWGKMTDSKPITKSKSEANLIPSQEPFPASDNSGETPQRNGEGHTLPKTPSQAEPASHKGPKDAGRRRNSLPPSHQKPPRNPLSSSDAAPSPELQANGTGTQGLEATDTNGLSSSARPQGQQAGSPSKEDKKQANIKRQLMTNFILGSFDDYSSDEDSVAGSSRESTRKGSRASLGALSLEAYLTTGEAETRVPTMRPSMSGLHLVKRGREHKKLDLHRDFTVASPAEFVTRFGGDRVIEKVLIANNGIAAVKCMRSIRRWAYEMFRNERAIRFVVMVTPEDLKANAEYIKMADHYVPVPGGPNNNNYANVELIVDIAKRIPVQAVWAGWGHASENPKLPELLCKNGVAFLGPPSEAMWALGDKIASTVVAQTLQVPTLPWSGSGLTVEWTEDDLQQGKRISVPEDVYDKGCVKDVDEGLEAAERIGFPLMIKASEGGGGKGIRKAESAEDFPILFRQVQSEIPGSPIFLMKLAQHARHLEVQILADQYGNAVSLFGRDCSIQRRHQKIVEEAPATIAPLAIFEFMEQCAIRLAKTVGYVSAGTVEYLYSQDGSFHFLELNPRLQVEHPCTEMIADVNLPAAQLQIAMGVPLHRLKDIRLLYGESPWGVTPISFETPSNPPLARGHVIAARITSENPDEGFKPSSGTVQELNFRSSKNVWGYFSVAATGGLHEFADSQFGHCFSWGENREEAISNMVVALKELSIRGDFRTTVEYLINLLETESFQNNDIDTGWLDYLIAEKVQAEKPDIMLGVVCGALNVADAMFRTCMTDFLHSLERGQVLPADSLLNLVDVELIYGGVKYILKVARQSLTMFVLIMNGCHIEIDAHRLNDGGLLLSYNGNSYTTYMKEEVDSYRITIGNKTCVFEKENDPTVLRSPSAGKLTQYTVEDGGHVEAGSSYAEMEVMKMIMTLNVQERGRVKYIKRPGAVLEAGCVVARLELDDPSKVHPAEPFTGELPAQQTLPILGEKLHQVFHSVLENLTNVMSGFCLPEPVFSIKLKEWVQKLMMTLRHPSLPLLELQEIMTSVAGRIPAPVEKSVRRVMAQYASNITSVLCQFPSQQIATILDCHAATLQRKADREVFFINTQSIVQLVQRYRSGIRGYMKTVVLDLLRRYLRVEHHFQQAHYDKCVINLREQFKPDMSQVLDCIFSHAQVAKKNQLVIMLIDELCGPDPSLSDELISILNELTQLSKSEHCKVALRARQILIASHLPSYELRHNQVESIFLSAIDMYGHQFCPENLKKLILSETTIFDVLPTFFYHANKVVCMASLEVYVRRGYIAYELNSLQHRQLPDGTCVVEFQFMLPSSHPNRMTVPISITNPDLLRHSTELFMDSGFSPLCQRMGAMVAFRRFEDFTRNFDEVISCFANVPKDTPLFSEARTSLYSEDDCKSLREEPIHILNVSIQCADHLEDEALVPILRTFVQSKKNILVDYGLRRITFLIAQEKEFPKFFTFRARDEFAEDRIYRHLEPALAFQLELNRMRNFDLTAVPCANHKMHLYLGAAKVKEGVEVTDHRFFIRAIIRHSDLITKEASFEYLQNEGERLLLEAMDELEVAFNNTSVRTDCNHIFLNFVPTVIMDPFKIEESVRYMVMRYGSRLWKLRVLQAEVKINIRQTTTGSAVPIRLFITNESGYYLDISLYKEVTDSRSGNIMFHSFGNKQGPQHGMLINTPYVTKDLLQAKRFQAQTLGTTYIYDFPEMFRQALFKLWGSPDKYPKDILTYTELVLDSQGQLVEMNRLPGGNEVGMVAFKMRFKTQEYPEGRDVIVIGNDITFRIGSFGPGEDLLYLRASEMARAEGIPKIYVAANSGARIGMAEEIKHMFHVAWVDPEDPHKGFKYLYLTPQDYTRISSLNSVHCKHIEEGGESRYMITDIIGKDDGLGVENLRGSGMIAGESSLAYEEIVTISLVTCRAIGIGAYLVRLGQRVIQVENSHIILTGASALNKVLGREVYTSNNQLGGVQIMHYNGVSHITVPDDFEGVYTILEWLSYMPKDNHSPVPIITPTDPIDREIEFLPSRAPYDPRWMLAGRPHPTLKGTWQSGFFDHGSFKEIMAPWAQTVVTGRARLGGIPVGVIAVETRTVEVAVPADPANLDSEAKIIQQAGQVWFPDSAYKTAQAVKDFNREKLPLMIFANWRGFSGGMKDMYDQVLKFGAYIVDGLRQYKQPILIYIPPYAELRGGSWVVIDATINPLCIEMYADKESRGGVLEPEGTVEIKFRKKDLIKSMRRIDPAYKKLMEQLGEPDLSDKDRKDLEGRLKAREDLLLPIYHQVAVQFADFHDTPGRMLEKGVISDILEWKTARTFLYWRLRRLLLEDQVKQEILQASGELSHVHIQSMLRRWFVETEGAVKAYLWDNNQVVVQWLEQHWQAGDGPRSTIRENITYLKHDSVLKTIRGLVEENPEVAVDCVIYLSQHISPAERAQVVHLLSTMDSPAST

Consider `CN(C)CCN1CCN(c2cc(C(=O)NC[C@H]3CC[C@H](CNC(=O)OC(C)(C)C)CC3)c3ccccc3n2)CC1=O` [Example 219, tert-Butyl {[trans-4-({[(2-{4-[2-(dimethylamino)ethyl]-3-oxopiperazin-1-yl}quinolin-4-yl)carbonyl]amino}methyl)cyclohexyl]methyl}carbamate], for which the IC50 in assay [1] stood at 0.9 µM; in assay [2], 4.58 µM.
In the case of `CC(C)(C)OC(=O)NC[C@H]1CC[C@H](CNC(=O)c2cc(N3CCN(C(=O)CO)CC3)nc3ccccc23)CC1` [Example 220, tert-Butyl [(trans-4-{[({2-[4-(hydroxyacetyl)piperazin-1-yl]quinolin-4-yl}carbonyl)amino]methyl}cyclohexyl)methyl]carbamate], the IC50 in assay [1] stood at 1.18 µM; in assay [2], 9.63 µM.
Take `CC(C)(C)OC(=O)NC[C@H]1CC[C@H](CNC(=O)c2cc(N3CCC(OCc4ccc(F)cc4)CC3)nc3ccccc23)CC1` [Example 221, tert-Butyl {[trans-4-({[(2-{4-[(4-fluorobenzyl)oxy]piperidin-1-yl}quinolin-4-yl)carbonyl]amino}methyl)cyclohexyl]methyl}carbamate]: the IC50 in assay [1] is 1.61 µM; in assay [2], more than 20 µM.
For the compound `CC(C)(C)OC(=O)NC[C@H]1CC[C@H](CNC(=O)c2c(N)sc3ccccc23)CC1` [Example 222, tert-Butyl {[trans-4-({[(2-amino-1-benzothiophen-3-yl)carbonyl]amino}methyl)-cyclohexyl]methyl}carbamate], the IC50 in assay [1] came to 3.4 µM; in assay [2], 9.1 µM.
For `CCNC(=O)Nc1sc2ccccc2c1C(=O)NC[C@H]1CC[C@H](CNC(=O)OC(C)(C)C)CC1` [Example 223, tert-Butyl [(trans-4-{[({2-[(ethylcarbamoyl)amino]-1-benzothiophen-3-yl}carbonyl)amino]methyl}cyclohexyl)methyl]carbamate] the same measures were 0.23 µM and 1.16 µM.
For the compound `CN(C)CCC1CCN(c2cc(C(=O)NC[C@H]3CC[C@H](CNC(=O)OC4CCOCC4)CC3)c3ccccc3n2)CC1` [Example 224, Tetrahydro-2H-pyran-4-yl {[trans-4-({[(2-{4-[2-(dimethylamino)ethyl]piperidin-1-yl}quinolin-4-yl)carbonyl]amino}methyl)cyclohexyl]methyl}carbamate], the IC50 in assay [1] was 0.68 µM; in assay [2] it was 6.31 µM.
On to `CN1CCC(C2CCN(c3cc(C(=O)NC[C@H]4CC[C@H](CNC(=O)OC(C)(C)C)CC4)c4ccccc4n3)CC2)CC1` [Example 225, tert-Butyl ({trans-4-[({[2-(1′-methyl-4,4′-bipiperidin-1-yl)quinolin-4-yl]carbonyl}amino)methyl]cyclohexyl}methyl)carbamate], for which the IC50 in assay [1] amounted to 0.11 µM; in assay [2], 0.95 µM.
Consider `COCCNCCC1CCN(c2cc(C(=O)NC[C@H]3CC[C@H](CNC(=O)OC(C)(C)C)CC3)c3ccccc3n2)CC1` [Example 226, tert-Butyl ({trans-4-[({[2-(4-{2-[(2-methoxyethyl)amino]ethyl}piperidin-1-yl)quinolin-4-yl]carbonyl}amino)methyl]cyclohexyl}methyl)carbamate], for which the IC50 in assay [1] is 0.2 µM; in assay [2] it was 1.63 µM.
For `COCCN(C)CCC1CCN(c2cc(C(=O)NC[C@H]3CC[C@H](CNC(=O)OC(C)(C)C)CC3)c3ccccc3n2)CC1` [Example 227, tert-Butyl({trans-4-[({[2-(4-{2-[(2-methoxyethyl)(methyl)-amino]ethyl}piperidin-1-yl)quinolin-4-yl]carbonyl}amino)-methyl]cyclohexyl}-methyl)carbamate], the IC50 in assay [1] worked out at 0.23 µM; in assay [2], 1.63 µM.
For `CC(C)(C)OC(=O)NC[C@H]1CC[C@H](CNC(=O)c2cc(N3CCC(CCNC4CCOCC4)CC3)nc3ccccc23)CC1` [Example 228, tert-Butyl{[trans-4-({[(2-{4-[2-(tetrahydro-2H-pyran-4-ylamino)ethyl]piperidin-1-yl}quinolin-4-yl)carbonyl]amino}-methyl)cyclohexyl]-methyl}carbamate] the same measures were 0.21 µM and 1.52 µM.
Regarding `COC1CN(CCC2CCN(c3cc(C(=O)NC[C@H]4CC[C@H](CNC(=O)OC(C)(C)C)CC4)c4ccccc4n3)CC2)C1` [Example 229, tert-Butyl{[trans-4-({[(2-{4-[2-(3-methoxyazetidin-1-yl)ethyl]piperidin-1-yl}quinolin-4-yl)carbonyl]amino}-methyl)cyclohexyl]-methyl}carbamate], the figures for the IC50 in assay [1] and in assay [2] were 0.11 µM and 0.92 µM, respectively.
As to `CC(C)(C)OC(=O)NC[C@H]1CC[C@H](CNC(=O)c2cc(N3CCC(CCN4CCCC4)CC3)nc3ccccc23)CC1` [Example 231, tert-Butyl[(trans-4-{[({2-[4-(2-pyrrolidin-1-ylethyl)piperidin-1-yl]quinolin-4-yl}carbonyl)amino]-methyl}cyclohexyl)-methyl]carbamate], the IC50 in assay [1] came out at 0.08 µM; in assay [2], 0.7 µM.
For the compound `CN(CCO)CCC1CCN(c2cc(C(=O)NC[C@H]3CC[C@H](CNC(=O)OC(C)(C)C)CC3)c3ccccc3n2)CC1` [Example 232, tert-Butyl({trans-4-[({[2-(4-{2-[(2-hydroxyethyl)(methyl)-amino]ethyl}piperidin-1-yl)quinolin-4-yl]carbonyl}amino)-methyl]cyclohexyl}-methyl)carbamate], the results for the IC50 in assay [1] and in assay [2] were 0.14 µM and 1.29 µM, respectively.
Take `CC(C)(C)OC(=O)NC[C@H]1CC[C@H](CNC(=O)c2cc(N3CCC(CCN4CC(O)C4)CC3)nc3ccccc23)CC1` [Example 233, tert-Butyl {[trans-4-({[(2-{4-[2-(3-hydroxyazetidin-1-yl)ethyl]piperidin-1-yl}quinolin-4-yl)carbonyl]amino}methyl)cyclohexyl]methyl}carbamate]: the IC50 in assay [1] is 0.1 µM; in assay [2] it was 1.02 µM.
As to `CC(C)(C)OC(=O)NC[C@H]1CC[C@H](CNC(=O)c2cc(N3CCC(CCN4CCC4)CC3)nc3ccccc23)CC1` [Example 234, tert-Butyl [(trans-4-{[({2-[4-(2-azetidin-1-ylethyl)piperidin-1-yl]quinolin-4-yl}carbonyl)amino]methyl}cyclohexyl)methyl]carbamate], the IC50 in assay [1] came out at 0.11 µM; in assay [2] it was 0.95 µM.
With `CC(C)(C)OC(=O)NC[C@H]1CC[C@H](CNC(=O)c2cc(N3CCC(CCN4CC(C(=O)O)C4)CC3)nc3ccccc23)CC1` [Example 235, 1-{2-[1-(4-{[(trans-4-{[(tert-Butoxycarbonyl)amino]methyl}cyclohexyl)methyl]-carbamoyl}quinolin-2-yl)piperidin-4-yl]ethyl}azetidine-3-carboxylic Acid], the figures for the IC50 in assay [1] and in assay [2] were 0.23 µM and 1.84 µM, respectively.
For the compound `CC(C)(C)OC(=O)NC[C@H]1CC[C@H](CNC(=O)c2cc(N3CCC(CCN4CC(N)C4)CC3)nc3ccccc23)CC1` [Example 236, tert-Butyl {[trans-4-({[(2-{4-[2-(3-aminoazetidin-1-yl)ethyl]piperidin-1-yl}quinolin-4-yl)carbonyl]amino}methyl)cyclohexyl]methyl}carbamate], the IC50 in assay [1] came out at 0.08 µM; in assay [2] it was 0.55 µM.
Turning to `CN(C)CC(F)CC1CCN(c2cc(C(=O)NC[C@H]3CC[C@H](CNC(=O)OC(C)(C)C)CC3)c3ccccc3n2)CC1` (stereo partly drawn) [Example 237, tert-Butyl {[trans-4-({[(2-{4-[3-(dimethylamino)-2-fluoropropyl]piperidin-1-yl}quinolin-4-yl)carbonyl]amino}methyl)cyclohexyl]methyl}carbamate], the figures for the IC50 in assay [1] and in assay [2] were 0.14 µM and 1.09 µM, respectively.
On to `CN(C)CCOC1CN(c2cc(C(=O)NC[C@H]3CC[C@H](CNC(=O)OC(C)(C)C)CC3)c3ccccc3n2)C1` [Example 238, tert-Butyl {[trans-4-({[(2-{3-[2-(dimethylamino)ethoxy]azetidin-1-yl}quinolin-4-yl)carbonyl]amino}methyl)cyclohexyl]methyl}carbamate], for which the IC50 in assay [1] is 0.63 µM; in assay [2], 4.45 µM.
As to `CC(C)(C)OC(=O)NC[C@H]1CC[C@H](CNC(=O)c2cc(-c3cn[nH]c3)nc(-c3cccc(CN)c3)c2)CC1` [Example 239, tert-Butyl [(trans-4-{[({2-[3-(aminomethyl)phenyl]-6-(1H-pyrazol-4-yl)pyridin-4-yl}carbonyl)amino]methyl}cyclohexyl)methyl]carbamate], the IC50 was determined as 0.35 µM in assay [1] and 0.74 µM in assay [2].
In the case of `CC(C)(C)OC(=O)NC[C@H]1CC[C@H](CNC(=O)c2cc(-c3cccnc3)nc(-c3cccc(CN)c3)c2)CC1` [Example 240, tert-Butyl [(trans-4-{[({6-[3-(aminomethyl)phenyl]-2,3′-bipyridin-4-yl}carbonyl)amino]methyl}cyclohexyl)methyl]carbamate], the values for the IC50 in assay [1] and in assay [2] were 0.36 µM and 1.08 µM, respectively.
As to `CC(C)(C)OC(=O)NC[C@H]1CC[C@H](CNC(=O)c2cc(-c3ccc(N)nc3)nc(-c3cccc(CN)c3)c2)CC1` [Example 241, tert-Butyl [(trans-4-{[({6′-amino-6-[3-(aminomethyl)phenyl]-2,3′-bipyridin-4-yl}carbonyl)amino]methyl}cyclohexyl)methyl]carbamate], the IC50 in assay [1] came to 0.11 µM; in assay [2] it was 0.26 µM.
On to `CN(C)CCn1cc(-c2cc(C(=O)NC[C@H]3CC[C@H](CNC(=O)OC(C)(C)C)CC3)c3ccccc3n2)cn1` [Example 242, tert-Butyl {[trans-4-({[(2-{1-[2-(dimethylamino)ethyl]-1H-pyrazol-4-yl}quinolin-4-yl)carbonyl]amino}methyl)cyclohexyl]methyl}carbamate], for which the IC50 worked out at 0.24 µM in assay [1] and 1.33 µM in assay [2].
For `CC(C)(C)OC(=O)NC[C@H]1CC[C@H](CNC(=O)c2cc(-c3cnn(CCO)c3)nc3ccccc23)CC1` [Example 243, tert-Butyl [(trans-4-{[({2-[1-(2-hydroxyethyl)-1H-pyrazol-4-yl]quinolin-4-yl}carbonyl)amino]methyl}cyclohexyl)methyl]carbamate], the IC50 in assay [1] turned out to be 0.61 µM; in assay [2], 1.93 µM.
